In patent US20230278972A1, “SUBSTITUTED HALOALKYL SULFONANILIDE HERBICIDES” (FMC Corporation, priority 2020, published 2023):

Legend:
Format in all cases: in vivo
[1] = tested on: blackgrass (Alopecurus myosuroides); assay: Test A1 postemergence, blackgrass; details: Postemergence, 0 to 100 scale (0 no effect, 100 complete control)
Source text: (§1) Seeds of plant species selected from, blackgrass (Alopecurus myosuroides), corn (Zea mays), Foxtail, Giant (giant foxtail, Setaria faberi), goosegrass (Eleusine indica), kochia (Bassia scoparia), Oat, Wild (wild oat, Avena fatua), Pigweed, Palmer (palmer amaranth, palmer pigweed, Amaranthus palmeri), ragweed (common ragweed, Ambrosia artemisiifolia), Ryegrass, Italian (Italian ryegrass, Lolium multiflorum), soybean (Glycine max), and wheat (Triticum aestivum) were planted into a blend of loam soil and sand and treated preemergence with a directed soil spray using test chemicals formulated in a non-phytotoxic solvent mixture which included a surfactant. At the same time, plants selected from these crop and weed species and also galium (catchweed bedstraw, Galium aparine) and horseweed (Erigeron canadensis) were planted in pots containing the same blend of loam soil and sand and treated with postemergence applications of test chemicals formulated in the same manner. Plants ranged in height from 2 to 10 cm and were in the one- to two-leaf stage for the postemergence treatment. […] A dash (-) response means no test result.

[2] = tested on: Ryegrass, Italian (Italian ryegrass, Lolium multiflorum); assay: Test A1 preemergence, Ryegrass, Italian
Source text: as §1

[3] = tested on: wheat (Triticum aestivum); assay: Test A1 postemergence, wheat; details: Postemergence
Source text: as §1

[4] = tested on: rice (Oryza sativa); assay: Test B1 flooded paddy test, rice; details: 250 g ai/ha, Flood, applied to paddy water, 2-leaf stage, visually evaluated after 10 to 14 days
Source text: (§2) A dash (-) response means no test result.

[5] = tested on: ragweed (common ragweed, Ambrosia artemisiifolia); assay: Test A1 preemergence, ragweed
Source text: as §1

[6] = tested on: soybean (Glycine max); assay: Test A1 postemergence, soybean; details: Postemergence
Source text: as §1

[7] = tested on: kochia (Bassia scoparia); assay: Test A1 preemergence, kochia
Source text: as §1

[8] = tested on: Pigweed, Palmer (palmer amaranth, palmer pigweed, Amaranthus palmeri); assay: Test A1 preemergence, Pigweed, Palmer
Source text: as §1

[9] = tested on: corn (Zea mays); assay: Test A1 preemergence, corn
Source text: as §1

[10] = tested on: wheat (Triticum aestivum); assay: Test A1 preemergence, wheat
Source text: as §1

[11] = tested on: soybean (Glycine max); assay: Test A1 preemergence, soybean
Source text: as §1

[12] = tested on: galium (catchweed bedstraw, Galium aparine); assay: Test A1 postemergence, galium; details: Postemergence
Source text: as §1

[13] = tested on: Foxtail, Giant (giant foxtail, Setaria faberi); assay: Test A1 postemergence, Foxtail, Giant; details: Postemergence
Source text: as §1

[14] = tested on: goosegrass (Eleusine indica); assay: Test A1 postemergence, goosegrass; details: Postemergence
Source text: as §1

[15] = tested on: Oat, Wild (wild oat, Avena fatua); assay: Test A1 postemergence, Oat, Wild; details: Postemergence
Source text: as §1

[16] = tested on: kochia (Bassia scoparia); assay: Test A1 postemergence, kochia; details: Postemergence
Source text: as §1

[17] = tested on: Oat, Wild (wild oat, Avena fatua); assay: Test A1 preemergence, Oat, Wild
Source text: as §1

[18] = tested on: barnyardgrass (Echinochloa crus-galli); assay: Test B1 flooded paddy test, barnyardgrass; details: 250 g ai/ha, Flood, applied to paddy water, 2-leaf stage, visually evaluated after 10 to 14 days
Source text: as §2

[19] = tested on: horseweed (Erigeron canadensis); assay: Test A1 postemergence, horseweed; details: Postemergence
Source text: as §1

[20] = tested on: Foxtail, Giant (giant foxtail, Setaria faberi); assay: Test A1 preemergence, Foxtail, Giant
Source text: as §1

[21] = tested on: corn (Zea mays); assay: Test A1 postemergence, corn; details: Postemergence
Source text: as §1

[22] = tested on: Pigweed, Palmer (palmer amaranth, palmer pigweed, Amaranthus palmeri); assay: Test A1 postemergence, Pigweed, Palmer; details: Postemergence
Source text: as §1

[23] = tested on: ducksalad (Heteranthera limosa); assay: Test B1 flooded paddy test, ducksalad; details: 250 g ai/ha, Flood, applied to paddy water, 2-leaf stage, visually evaluated after 10 to 14 days
Source text: as §2

[24] = tested on: goosegrass (Eleusine indica); assay: Test A1 preemergence, goosegrass
Source text: as §1

[25] = tested on: ragweed (common ragweed, Ambrosia artemisiifolia); assay: Test A1 postemergence, ragweed; details: Postemergence
Source text: as §1

[26] = tested on: Ryegrass, Italian (Italian ryegrass, Lolium multiflorum); assay: Test A1 postemergence, Ryegrass, Italian; details: Postemergence
Source text: as §1

[27] = 31 g ai/ha, 0 to 100 scale (0 no effect, 100 complete control)
[28] = 125 g ai/ha, 0 to 100 scale, 0 no effect, 100 complete control
[29] = 31 g ai/ha, 0 to 100 scale (0 no effect, 100 complete control), 10 days

`Cc1c(NS(=O)(=O)C(F)(F)F)cc(C(=O)N2CCSCC2)c(C)c1C` [Compound 283] was tested, and the “Plant response rating, Blackgrass” value ([1]; 31 g ai/ha, 10 days) was 0, the “Plant response rating, Blackgrass” value ([1]; 125 g ai/ha) was 10 and the “Plant response rating, Ryegrass, Italian” value [2, 27] was 0. For the same compound, the “Plant response rating, Ryegrass, Italian” value [2, 28] was 0, the “Plant response rating, Wheat” value [3, 29] was 10 and the “Plant response rating, Wheat” value ([3]; 125 g ai/ha, 0 to 100 scale) was 50. For the same compound, the “Plant response rating, Rice (0 to 100 scale, 0 is no effect, 100 is complete control)” value [4] was 0, the “Plant response rating, Ragweed” value [5, 27] was 0 and the “Plant response rating, Ragweed” value [5, 28] was 40. The “Plant response rating, Soybean” value [6, 29] was 40, the “Plant response rating, Soybean” value ([6]; 125 g ai/ha, 0 to 100 scale) was 60 and the “Plant response rating, Kochia” value [7, 27] was 30. For the same compound, the “Plant response rating, Kochia” value [7, 28] was 90, the “Plant response rating, Pigweed, Palmer” value [8, 27] was 10 and the “Plant response rating, Pigweed, Palmer” value [8, 28] was 50. The “Plant response rating, Corn” value [9, 27] was 0, the “Plant response rating, Corn” value [9, 28] was 10 and the “Plant response rating, Wheat” value [10, 27] was 0. For the same compound, the “Plant response rating, Wheat” value [10, 28] was 50, the “Plant response rating, Soybean” value [11, 27] was 0 and the “Plant response rating, Soybean” value [11, 28] was 50. For the same compound, the “Plant response rating, Galium” value [12, 29] was 50, the “Plant response rating, Galium” value ([12]; 125 g ai/ha, 0 to 100 scale) was 70 and the “Plant response rating, Foxtail, Giant” value [13, 29] was 80. The “Plant response rating, Foxtail, Giant” value ([13]; 125 g ai/ha, 0 to 100 scale) was 90, the “Plant response rating, Goosegrass” value [14, 29] was 10 and the “Plant response rating, Goosegrass” value ([14]; 125 g ai/ha, 0 to 100 scale) was 30. For the same compound, the “Plant response rating, Oat, Wild” value [15, 29] was 0, the “Plant response rating, Oat, Wild” value ([15]; 125 g ai/ha, 0 to 100 scale) was 0 and the “Plant response rating, Kochia” value [16, 29] was 20. The “Plant response rating, Kochia” value ([16]; 125 g ai/ha, 0 to 100 scale) was 60, the “Plant response rating, Oat, Wild” value [17, 28] was 0 and the “Plant response rating, Barnyardgrass (0 to 100 scale, 0 is no effect, 100 is complete control)” value [18] was 15. For the same compound, the “Plant response rating, Horseweed” value [19, 29] was 70, the “Plant response rating, Horseweed” value ([19]; 125 g ai/ha, 0 to 100 scale) was 80 and the “Plant response rating, Foxtail, Giant” value [20, 27] was 10. For the same compound, the “Plant response rating, Foxtail, Giant” value [20, 28] was 90, the “Plant response rating, Corn” value [21, 29] was 0 and the “Plant response rating, Corn” value ([21]; 125 g ai/ha, 0 to 100 scale) was 0. The “Plant response rating, Pigweed, Palmer” value [22, 29] was 10, the “Plant response rating, Pigweed, Palmer” value ([22]; 125 g ai/ha, 0 to 100 scale) was 50 and the “Plant response rating, Ducksalad (0 to 100 scale, 0 is no effect, 100 is complete control)” value [23] was 50. For the same compound, the “Plant response rating, Goosegrass” value [24, 27] was 30, the “Plant response rating, Goosegrass” value [24, 28] was 60 and the “Plant response rating, Ragweed” value [25, 29] was 30. The “Plant response rating, Ragweed” value ([25]; 125 g ai/ha, 0 to 100 scale) was 80, the “Plant response rating, Ryegrass, Italian” value [26, 29] was 0 and the “Plant response rating, Ryegrass, Italian” value ([26]; 125 g ai/ha, 0 to 100 scale) was 40.
With `Cc1c(C(=O)N2CCSCC2)cc(N(COC(=O)C(C)(C)C)S(=O)(=O)C(F)(F)F)c(C)c1C` [Compound 285] the “Plant response rating, Blackgrass” value ([1]; 31 g ai/ha, 10 days) was 0, the “Plant response rating, Blackgrass” value ([1]; 125 g ai/ha) was 30 and the “Plant response rating, Ryegrass, Italian” value [2, 27] was 0. For the same compound, the “Plant response rating, Ryegrass, Italian” value [2, 28] was 0, the “Plant response rating, Wheat” value [3, 29] was 10 and the “Plant response rating, Wheat” value ([3]; 125 g ai/ha, 0 to 100 scale) was 20. The “Plant response rating, Rice (0 to 100 scale, 0 is no effect, 100 is complete control)” value [4] was 0, the “Plant response rating, Ragweed” value [5, 27] was 0 and the “Plant response rating, Ragweed” value [5, 28] was 10. For the same compound, the “Plant response rating, Soybean” value [6, 29] was 30, the “Plant response rating, Soybean” value ([6]; 125 g ai/ha, 0 to 100 scale) was 60 and the “Plant response rating, Kochia” value [7, 27] was 20. For the same compound, the “Plant response rating, Kochia” value [7, 28] was 70, the “Plant response rating, Pigweed, Palmer” value [8, 27] was 10 and the “Plant response rating, Pigweed, Palmer” value [8, 28] was 20. For the same compound, the “Plant response rating, Corn” value [9, 27] was 0, the “Plant response rating, Corn” value [9, 28] was 10 and the “Plant response rating, Wheat” value [10, 27] was 0. The “Plant response rating, Wheat” value [10, 28] was 20, the “Plant response rating, Soybean” value [11, 27] was 0 and the “Plant response rating, Soybean” value [11, 28] was 0. For the same compound, the “Plant response rating, Galium” value [12, 29] was 40, the “Plant response rating, Galium” value ([12]; 125 g ai/ha, 0 to 100 scale) was 80 and the “Plant response rating, Foxtail, Giant” value [13, 29] was 30. For the same compound, the “Plant response rating, Foxtail, Giant” value ([13]; 125 g ai/ha, 0 to 100 scale) was 80, the “Plant response rating, Goosegrass” value [14, 29] was 0 and the “Plant response rating, Goosegrass” value ([14]; 125 g ai/ha, 0 to 100 scale) was 50. The “Plant response rating, Oat, Wild” value [15, 29] was 0, the “Plant response rating, Oat, Wild” value ([15]; 125 g ai/ha, 0 to 100 scale) was 10 and the “Plant response rating, Kochia” value [16, 29] was 10. The “Plant response rating, Kochia” value ([16]; 125 g ai/ha, 0 to 100 scale) was 90, the “Plant response rating, Oat, Wild” value [17, 27] was 0 and the “Plant response rating, Oat, Wild” value [17, 28] was 20. The “Plant response rating, Barnyardgrass (0 to 100 scale, 0 is no effect, 100 is complete control)” value [18] was 35, the “Plant response rating, Horseweed” value [19, 29] was 70 and the “Plant response rating, Horseweed” value ([19]; 125 g ai/ha, 0 to 100 scale) was 80. For the same compound, the “Plant response rating, Foxtail, Giant” value [20, 27] was 40, the “Plant response rating, Foxtail, Giant” value [20, 28] was 90 and the “Plant response rating, Corn” value [21, 29] was 0. The “Plant response rating, Corn” value ([21]; 125 g ai/ha, 0 to 100 scale) was 0, the “Plant response rating, Pigweed, Palmer” value [22, 29] was 0 and the “Plant response rating, Pigweed, Palmer” value ([22]; 125 g ai/ha, 0 to 100 scale) was 20. For the same compound, the “Plant response rating, Ducksalad (0 to 100 scale, 0 is no effect, 100 is complete control)” value [23] was 50, the “Plant response rating, Goosegrass” value [24, 27] was 0 and the “Plant response rating, Goosegrass” value [24, 28] was 70. The “Plant response rating, Ragweed” value [25, 29] was 20, the “Plant response rating, Ragweed” value ([25]; 125 g ai/ha, 0 to 100 scale) was 90 and the “Plant response rating, Ryegrass, Italian” value [26, 29] was 0. The “Plant response rating, Ryegrass, Italian” value ([26]; 125 g ai/ha, 0 to 100 scale) was 0.
